Several values for one entry are separate records, joined by “and”; a condition that tells them apart may be missing. Equal values may be shown once.
Key:
Type in all cases: cell-based, rat
[1] = test system: TH positive dopaminergic neurons of primary mesencephalic culture; assay: Neuroprotective effect on TH positive dopaminergic neuron survival following exposure to MPP+; settings: MPP+ 4 μM, 48 h
Protocol: This study investigated the neuroprotective effect of the plant extract of the invention on rat primary mesencephalic cultures following exposure to 1-methyl-4-phenyl pyridinium (MPP^+).
In such assay, […] (BDNF) was used as standard molecule.
(§1) The mesencephalic neurons were cultivated as in preceding example.
On day 6 of culture, the medium was removed and fresh medium was added, without or with MPP^+ (Batch 092M4729V, Sigma, France) at 4 μM diluted in control medium. 6 wells per condition were assessed.
(§2) The cells were fixed, washed, permeabilized and non-specific sites were blocked.
The immunolabeled cultures were automatically examined with ImageXpress (Molecular Devices, United Kingdom) equipped with a LED at ×10 magnification. For each condition (6 culture wells), 20 automatically fields per well (representing ˜80% of the total surface of the well) were analyzed. The total number of TH neurons was automatically analyzed using MetaXpress software (Molecular Devices).
Data were expressed in percentage of control conditions (no MPP^+=100%) in order to express the MPP^+ injury. All values were expressed as mean+/−SEM (s.e.mean) of the 6 wells with statistical analyses on the different conditions (ANOVA followed by Dunnett's test when allowed, using GraphPad Prism software). […]

[2] = test system: TH positive dopaminergic neurons of primary mesencephalic culture; assay: Neuroprotective effect on TH positive dopaminergic neuron survival following exposure to rotenone; settings: rotenone 10 nM, 24 hours, toxin alone
Protocol: as §1, §2
For each condition (6 culture wells), 20 automatically fields per well (representing ˜80% of the total surface of the well) were analyzed. The total number of TH neurons was automatically analyzed using MetaXpress software (Molecular Devices).

[3] = test system: TH positive dopaminergic neurons of primary mesencephalic culture; assay: Neuroprotective effect on TH positive dopaminergic neuron survival following exposure to 6-OHDA; settings: 6-OHDA 20 μM, 24 h, toxin alone
Protocol: This study investigated the neuroprotective effect of the plant extract of the invention on rat primary mesencephalic cultures following exposure to 6OHDA. […]
The midbrains were dissociated by trypsinisation for 20 min at 37° C. (Trypsin 0.05%, EDTA 0.02% (Batch 7310713, PanBiotech). The reaction was stopped by the addition of Dulbecco's modified Eagle's medium (DMEM, Batch 9710913, PanBiotech) containing DNAase I grade II (0.1 mg/mL, Batch H131108, PanBiotech) and 10% of foetal calf serum (FCS, Batch 41Q7218K, Gibco). Cells were then mechanically dissociated by 3 passages through a 10 mL pipette. Cells were then centrifuged at 180×g for 10 min at +4° C. on a layer of BSA (3.5%) in L15 medium. The supernatant was discarded and the cell pellets were re-suspended in a defined culture medium consisting of Neurobasal (Batch 1576979, Invitrogen, France) supplemented with 2% of B27 (Batch 1589889, Invitrogen), 2 mM of L-glutamine (Batch 8150713, PanBiotech), 2% of PS solution, 10 ng/mL of Brain-derived neurotrophic factor (Batch H140108, PanBiotech) and 1 ng/mL of Glial-Derived Neurotrophic Factor (Batch H130917, Pan Biotech) Viable cells were counted in a Neubauer cytometer using the trypan blue exclusion test. […]

Q: How did the “cell death of TH positive neurons induced by the toxin” value (from here on “cell death”) ([1]; toxin alone) turn out when `C[n+]1ccc(-c2ccccc2)cc1` [MPP^+, 1-methyl-4-phenyl pyridinium] was run?
A: > 35% and > 30%

Q: How did the “cell death” value [2] turn out when `C=C(C)[C@H]1Cc2c(ccc3c2O[C@@H]2COc4cc(OC)c(OC)cc4[C@@H]2C3=O)O1` [Rotenone, rotenone] was run?
A: ~40%

Q: For `NCCc1cc(O)c(O)cc1O` [Composition 6-OHDA, 6-hydroxydopamine], which “cell death” value [3] is on record?
A: > 25%

B1: BDNF: Brain Derived Growth Factor (BDNF) used as standard molecule (protein, UniProt P23560 19-247, looked up)
Neurotrophic factor BDNF …: APMKEANIRGQGGLAYPGVRTHGTLESVNGPKAGSRGLTSLADTFEHVIEELLDEDQKVRPNEENNKDADLYTSRVMLSSQVPLEPPLLFLLEEYKNYLDAANMSMRVRRHSDPARRGELSVCDSISEWVTAADKKTAVDMSGGTVTVLEKVPVSKGQLKQYFYETKCNPMGYTKEGCRGIDKRHWNSQCRTTQSYVRALTMDSKKRIGWRFIRIDTSCVCTLTIKRGR
Q: For B1, which “protection from MPP+ induced injuries” value ([1]; 50 ng/mL) is on record?
A: able to significantly protect cells

Reference: patent publication US10596217B2, “Compositions containing a Withania somnifera extract incubated with a filamentous fungus of the Beauvaria genus” (Ethnodyne, priority 2015, dated 2020)
